# Measurements as given in patent US11999739B2, “Antimicrobials methods of making and using the same” (BIOVERSYS AG, priority 2016, dated 2024).
# Assays:
# [1] = test system: Staphylococcus aureus (S. aureus) 11540 strain; assay: Standard microdilution MIC assay, S. aureus; type: cell-based
# Outline: (§1)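 MICs obtained by CLSI-standard microdilution, quality-controlled with reference strains in parallel. Values reported as + or − relative to a 16 micrograms/mL cutoff.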
# [2] = test system: Escherichia coli strain ATCC25922; assay: Standard microdilution MIC assay, E. coli; type: cell-based
# Outline: as §1
Structure (SMILES),MIC [1],MIC [2]
COC[C@H](N)CCCc1cc(OC(F)(F)F)c(F)c(-c2cc3cn(-c4ccc([C@@H]5CCC[C@@H](C[C@H](C)NC(C)=N)N5)cc4)c(=O)nc3[nH]2)c1 [Compound 258],≤ 16 µg/mL,≤ 16 µg/mL
C=C[C@H](N)CCCc1cc(Cl)c(F)c(-c2cc3cn(-c4ccc([C@@H]5CCC[C@@H](CCNC(C)=N)N5)c(C)c4)c(=O)nc3[nH]2)c1 [Compound 259],≤ 16 µg/mL,≤ 16 µg/mL
CSc1cc(-n2cc3cc(-c4cc(CCC[C@@H]5COCCN5)cc(Cl)c4F)[nH]c3nc2=O)ccc1[C@@H]1CCC[C@@H](CCNC(C)=N)N1 [Compound 260],≤ 16 µg/mL,≤ 16 µg/mL
CC(=N)NCC[C@@H]1CCC[C@@H](c2ccc(-n3cc4cc(-c5cc(CCC[C@H](C)N)cc(Cl)c5F)[nH]c4nc3=O)cc2)N1CCc1cccnc1 [Compound 261],≤ 16 µg/mL,≤ 16 µg/mL
CC(=N)NCC[C@@H]1CCC[C@@H](c2ccc(-n3cc4cc(-c5cc(CCC[C@H](C)N)cc(Cl)c5F)[nH]c4nc3=O)cc2)N1CCn1ccnc1 [Compound 262],≤ 16 µg/mL,≤ 16 µg/mL
CC(=N)NCC[C@@H]1CCC[C@@H](c2ccc(-n3cc4cc(-c5cc(CCC[C@H](C)N)cc(Cl)c5F)[nH]c4nc3=O)cc2)N1CCn1ccnc1C [Compound 263],≤ 16 µg/mL,≤ 16 µg/mL
C=C[C@H](NCCCNC(C)=N)c1ccc(-n2cc3cc(-c4cc(CCC[C@@H](N)C=C)cc(Cl)c4F)[nH]c3nc2=O)cc1 [Compound 265],≤ 16 µg/mL,≤ 16 µg/mL
C=C[C@H](NCCCNC(C)=N)c1ccc(-n2cc3cc(-c4cc(CCC[C@@H](N)C5CC5)cc(Cl)c4F)[nH]c3nc2=O)cc1 [Compound 266],≤ 16 µg/mL,≤ 16 µg/mL
C=C[C@H](NCCCNC(C)=N)c1ccc(-n2cc3cc(-c4cc(CCCC(C)(C)N)cc(Cl)c4F)[nH]c3nc2=O)cc1 [Compound 267],≤ 16 µg/mL,≤ 16 µg/mL
C=C[C@H](NCCCNC(C)=N)c1ccc(-n2cc3cc(-c4cc(CCC[C@@H](N)COC)cc(OC(F)(F)F)c4F)[nH]c3nc2=O)cc1 [Compound 268],≤ 16 µg/mL,≤ 16 µg/mL
CC(=N)NCC[C@@H]1CSC[C@@H](c2ccc(-n3cc4cc(-c5cc(CCC[C@@H](N)C6CC6)cc(Cl)c5F)[nH]c4nc3=O)cc2)N1 [Compound 269],≤ 16 µg/mL,≤ 16 µg/mL
COC[C@H](N)CCCc1cc(OC(F)(F)F)c(F)c(-c2cc3cn(-c4ccc([C@@H]5CSC[C@@H](CCNC(C)=N)N5)cc4)c(=O)nc3[nH]2)c1 [Compound 270],≤ 16 µg/mL,≤ 16 µg/mL
CC(=N)NCC[C@@H]1CSC[C@@H](c2ccc(-n3cc4cc(-c5cc(CCC[C@H](C)N)cc(Cl)c5F)[nH]c4nc3=O)cc2)N1 [Compound 271],≤ 16 µg/mL,≤ 16 µg/mL
C=C[C@H](N)CCCc1cc(Cl)c(F)c(-c2cc3cn(-c4ccc([C@@H]5CCC[C@@H](CCNC(C)=N)N5)c(S(C)(=O)=O)c4)c(=O)nc3[nH]2)c1 [Compound 272],≤ 16 µg/mL,≤ 16 µg/mL
CC(=N)NCC[C@@H]1CCC[C@@H](c2ccc(-n3cc4cc(-c5cc(CCC[C@@H](N)C6CC6)cc(Cl)c5F)[nH]c4nc3=O)cc2S(C)(=O)=O)N1 [Compound 273],≤ 16 µg/mL,≤ 16 µg/mL
C=C[C@H](N)CCCc1cc(Cl)c(F)c(-c2cc3cn(-c4cc(F)c([C@@H]5CCC[C@@H](CCNC(C)=N)N5)c(SC)c4)c(=O)nc3[nH]2)c1 [Compound 274],≤ 16 µg/mL,≤ 16 µg/mL
CSc1cc(-n2cc3cc(-c4cc(CCC[C@@H](N)C5CC5)cc(Cl)c4F)[nH]c3nc2=O)cc(F)c1[C@@H]1CCC[C@@H](CCNC(C)=N)N1 [Compound 275],≤ 16 µg/mL,≤ 16 µg/mL
CSC[C@H](N)CCCc1cc(Cl)c(F)c(-c2cc3cn(-c4ccc([C@@H]5CCC[C@@H](CCNC(C)=N)N5)cc4)c(=O)nc3[nH]2)c1 [Compound 276],≤ 16 µg/mL,≤ 16 µg/mL
COCCN1[C@H](CCNC(C)=N)CCC[C@H]1c1ccc(-n2cc3cc(-c4cc(CCC[C@H](C)N)cc(Cl)c4F)[nH]c3nc2=O)cc1 [Compound 277],≤ 16 µg/mL,≤ 16 µg/mL
